Measured values published in US12297434B1, “Biomarker for predicting drug resistance of bruton's tyrosine kinase inhibitors and application thereof” (Beijing Friendship Hospital, Capital Medical University, priority 2024, dated 2025).

Legend:
Assay type in all cases: cell-based, Human
SUDHL2 cells = assay: CCK8 cell viability, zebutinib on SUDHL2; conditions: parental ABC-DLBCL cell line SUDHL2, CCK8 method; read-out: half maximal inhibitory concentration (IC50)
Description: (§1) Human ABC-DLBCL cell lines (SUDHL2, U2932 and OCI-LY10) are purchased from American Type Culture Collection (ATCC) cell bank. The BTK inhibitor-resistant ABC-DLBCL-R cell line is constructed according to the drug concentration gradient increment method, and the BTK inhibitor used in the present disclosure is zebutinib. […] All the patients were diagnosed according to the 2016 revision of the WHO classification of lymphoid neoplasms. Before the study, written informed consent was obtained from each patient and healthy volunteer.
(§2) The drug concentration gradient is used to induce zebutinib resistance to BTK inhibitor in ABC-DLBCL cell lines (SUDHL2, U2932 and OCI-LY10). Tumor cells in the logarithmic growth phase are taken, and zebutinib at a starting concentration of 2 micromoles per liter (μmol/L) (about 1/10 of the IC50 of the parental cell line) is added to act for 24 hours (h). […]
(§3) Cell activity is measured using a cell counting kit-8 (CCK-8, Dojindo, Japan). […] The absorbance at 450 nm is measured by ELX808 microplate spectrophotometer (BioTekInstruments, Winooski, VT, USA). Colony formation experiment: cells are inoculated into a 6-well plate with 500 cells per well, three copies in one group, and cultured for 10-14 days to form colonies, followed by […] in formaldehyde and staining with crystal violet, and the visible colonies are counted. […]

[1] = tested on: SUDHL2-R cells (zebutinib-resistant ABC-DLBCL cell line); assay: CCK8 cell viability, zebutinib on SUDHL2-R
Description: as §1, §2, §3

U2932 cells = assay: CCK8 cell viability, zebutinib on U2932; conditions: parental ABC-DLBCL cell line U2932, CCK8 method; read-out: half maximal inhibitory concentration (IC50)
Description: as §1, §2, §3

[2] = tested on: U2932-R cells (zebutinib-resistant ABC-DLBCL cell line); assay: CCK8 cell viability, zebutinib on U2932-R
Description: as §1, §2, §3

OCI-LY10 cells = assay: CCK8 cell viability, zebutinib on OCI-LY10; conditions: parental ABC-DLBCL cell line OCI-LY10, CCK8 method; read-out: half maximal inhibitory concentration (IC50)
Description: as §1, §2, §3

[3] = tested on: OCI-LY10-R cells (zebutinib-resistant ABC-DLBCL cell line); assay: CCK8 cell viability, zebutinib on OCI-LY10-R
Description: as §1, §2, §3

- IC50 ([1]; drug-resistant cell line SUDHL2-R, CCK8 method, read-out: half maximal inhibitory concentration (IC50)): 90.3 µM
- IC50 ([3]; drug-resistant cell line OCI-LY10-R, CCK8 method, read-out: half maximal inhibitory concentration (IC50)): 118 µM
SMILES: C=CC(=O)N1CCC([C@@H]2CCNc3c(C(N)=O)c(-c4ccc(Oc5ccccc5)cc4)nn32)CC1 [zebutinib]
- IC50 (SUDHL2 cells): 17.1 µM
- resistance index (RI) ([1]; RI=IC50 of drug-resistant cell line/IC50 of parental cell line, SUDHL2-R vs SUDHL2): 5.28
- IC50 (U2932 cells): 28 µM
- resistance index (RI) ([2]; RI=IC50 of drug-resistant cell line/IC50 of parental cell line, U2932-R vs U2932): 5.14
- IC50 ([2]; drug-resistant cell line U2932-R, CCK8 method, read-out: half maximal inhibitory concentration (IC50)): 144 µM
- IC50 (OCI-LY10 cells): 22.5 µM
- resistance index (RI) ([3]; RI=IC50 of drug-resistant cell line/IC50 of parental cell line, OCI-LY10-R vs OCI-LY10): 5.23
